Source: patent US20150038435A1, “N-TERMINALLY MODIFIED OLIGOPEPTIDES AND USES THEREOF” (Novo Nordisk A/S, priority 2012, published 2015)
*: point of attachment. Lauroyl = CCCCCCCCCCCC(=O)*

Legend:
[1] = Hydrophobicity: retention time during reverse phase HPLC; format: physicochemical; settings: Acquity CSH C18; pH 7.2 buffer/CH3CN gradient; 40° C.
Text: The retention time (RT) during reverse phase HPLC was taken as a measure of hydrophobicity of an N-terminally modified peptide or oligopeptide of the invention, where the connection is: The longer the RT, the more hydrophobic N-terminally modified peptide or oligopeptide. The following running conditions were applied during HPLC analysis:
Buffer B: 70% (v/v) aq. CH3CN

Chymotrypsin = test: Inhibition of enzymatic degradation of a model GLP-1 (FRET substrate) by chymotrypsin; format: biochemical
Summary of the method: (§1)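 Initial-rate slopes of fluorescence rise (320 nm ex, 405 nm em), fitted over the linear early phase and averaged from duplicates, were plotted against inhibitor concentration and fitted logistically to give EC50. Reactions ran at 37° C in Dulbecco's PBS, with MCA/DNP GLP-1 FRET substrate added as 10 μl of 100 μM stock.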

Trypsin = test: Inhibition of enzymatic degradation of a model GLP-1 (FRET substrate) by trypsin; format: biochemical
Summary of the method: as §1

[2] = compound 0.1 mM, buffer containing 8% DMSO

Substance	RT (retention time during reverse phase HPLC as a measure of hydrophobicity) [1] [min]	Slope of the initial increase in fluorescence obtained during incubation with 0.001 mg/ml Chymotrypsin (Chymotrypsin; [2])	Slope of the initial increase in fluorescence obtained during incubation with 0.001 mg/ml Trypsin (Trypsin; [2])	EC50 (Chymotrypsin; read-out: EC50 Chymotrypsin (0.001 mg/ml), 0.001 mg/ml chymotrypsin, 37° C., ± standard error if at least 3 measurements) [µM]	EC50 (Trypsin; read-out: EC50 Trypsin (0.001 mg/ml), 0.001 mg/ml trypsin, 37° C.) [µM]	Slope of the initial increase in fluorescence obtained during incubation with 0.001 mg/ml Chymotrypsin (Chymotrypsin; compound 1 mM)	Slope of the initial increase in fluorescence obtained during incubation with 0.001 mg/ml Trypsin (Trypsin; compound 1 mM)
N-dodecanoyl-Asn-Ala-Pro-Tyr-OH (Lauroyl-NAPY-OH; SMILES CCCCCCCCCCCC(=O)N[C@@H](CC(N)=O)C(=O)N[C@@H](C)C(=O)N1CCC[C@H]1C(=O)N[C@@H](Cc1ccc(O)cc1)C(=O)O) [Example 94]	4.77	1.83	1.90	–	–	–	–
N-dodecanoyl-Ala-Ala-Asp-Tyr-OH (Lauroyl-AADY-OH; SMILES CCCCCCCCCCCC(=O)N[C@@H](C)C(=O)N[C@@H](C)C(=O)N[C@@H](CC(=O)O)C(=O)N[C@@H](Cc1ccc(O)cc1)C(=O)O) [Example 60]	4.33	0.91	1.73	–	–	–	–
N-dodecanoyl-Ser-Ala-Ala-Pro-Tyr-OH [Example 50]	5.16	0.09	1.48	–	–	–	–
N-dodecanoyl-Ala-Ser-Pro-Tyr-OH (Lauroyl-ASPY-OH; SMILES CCCCCCCCCCCC(=O)N[C@@H](C)C(=O)N[C@@H](CO)C(=O)N1CCC[C@H]1C(=O)N[C@@H](Cc1ccc(O)cc1)C(=O)O) [Example 86]	5.64	0.33	1.89	–	–	–	–
N-dodecanoyl-Val-Ala-Pro-Tyr-OH (Lauroyl-VAPY-OH; SMILES CCCCCCCCCCCC(=O)N[C@H](C(=O)N[C@@H](C)C(=O)N1CCC[C@H]1C(=O)N[C@@H](Cc1ccc(O)cc1)C(=O)O)C(C)C) [Example 55]	7.01	0.42	1.88	–	–	–	–
N-dodecanoyl-Ala-Ala-Ala-Ala-Pro-Phe-OH [Example 19]	6.57	–	–	121	38	–	–
N-dodecanoyl-Leu-Ala-Pro-Tyr-OH (Lauroyl-LAPY-OH; SMILES CCCCCCCCCCCC(=O)N[C@@H](CC(C)C)C(=O)N[C@@H](C)C(=O)N1CCC[C@H]1C(=O)N[C@@H](Cc1ccc(O)cc1)C(=O)O) [Example 43]	7.86	0.21	1.36	–	–	–	–
N-dodecanoyl-Arg-Pro-Tyr-OH [Example 113]	5.29	0.18	2.00	–	–	–	–
N-dodecanoyl-Ala-Val-Pro-Tyr-OH (Lauroyl-AVPY-OH; SMILES CCCCCCCCCCCC(=O)N[C@@H](C)C(=O)N[C@H](C(=O)N1CCC[C@H]1C(=O)N[C@@H](Cc1ccc(O)cc1)C(=O)O)C(C)C) [Example 90]	6.6	0.35	1.25	–	–	–	–
N-dodecanoyl-Ala-Ala-Thr-Tyr-OH (Lauroyl-AATY-OH; SMILES CCCCCCCCCCCC(=O)N[C@@H](C)C(=O)N[C@@H](C)C(=O)N[C@H](C(=O)N[C@@H](Cc1ccc(O)cc1)C(=O)O)[C@@H](C)O) [Example 71]	5.61	0.91	1.76	–	–	–	–
N-dodecanoyl-Ala-Ala-Pro-Leu-OH (Lauroyl-AAPL-OH; SMILES CCCCCCCCCCCC(=O)N[C@@H](C)C(=O)N[C@@H](C)C(=O)N1CCC[C@H]1C(=O)N[C@@H](CC(C)C)C(=O)O) [Example 11]	1.22	–	–	–	–	0.77	3.06
N-dodecanoyl-Thr-Ala-Pro-Tyr-OH (Lauroyl-TAPY-OH; SMILES CCCCCCCCCCCC(=O)N[C@H](C(=O)N[C@@H](C)C(=O)N1CCC[C@H]1C(=O)N[C@@H](Cc1ccc(O)cc1)C(=O)O)[C@@H](C)O) [Example 53]	5.52	0.16	1.80	–	–	–	–
N-dodecanoyl-Pro-Pro-Tyr-OH [Example 106]	6.01	1.72	1.75	–	–	–	–
N-tetradecanoyl-βAla-Ala-Pro-Phe-OH [Example 9]	8.73	–	–	–	–	0.01	0.21
N-dodecanoyl-Arg-Ala-Ala-Pro-Tyr-OH [Example 91]	4.63	0.00	1.06	–	–	–	–
N-dodecanoyl-γGlu-OEG-Ala-Ala-Pro-Phe-OH [Example 125]	3.95	–	–	–	–	0.75	0.38
N-dodecanoyl-Lys-Ala-Pro-Tyr-OH (Lauroyl-KAPY-OH; SMILES CCCCCCCCCCCC(=O)N[C@@H](CCCCN)C(=O)N[C@@H](C)C(=O)N1CCC[C@H]1C(=O)N[C@@H](Cc1ccc(O)cc1)C(=O)O) [Example 45]	4.62	0.89	1.84	–	–	–	–
N-dodecanoyl-Thr-Pro-Tyr-OH [Example 108]	5.72	0.59	1.92	–	–	–	–
N-dodecanoyl-Ala-Trp-Pro-Tyr-OH (Lauroyl-AWPY-OH; SMILES CCCCCCCCCCCC(=O)N[C@@H](C)C(=O)N[C@@H](Cc1c[nH]c2ccccc12)C(=O)N1CCC[C@H]1C(=O)N[C@@H](Cc1ccc(O)cc1)C(=O)O) [Example 88]	7.88	0.11	0.80	–	–	–	–
N-dodecanoyl-Ala-Met-Pro-Tyr-OH (Lauroyl-AMPY-OH; SMILES CCCCCCCCCCCC(=O)N[C@@H](C)C(=O)N[C@@H](CCSC)C(=O)N1CCC[C@H]1C(=O)N[C@@H](Cc1ccc(O)cc1)C(=O)O) [Example 83]	6.88	0.32	1.64	–	–	–	–
N-dodecanoyl-Ala-Thr-Pro-Tyr-OH (Lauroyl-ATPY-OH; SMILES CCCCCCCCCCCC(=O)N[C@@H](C)C(=O)N[C@H](C(=O)N1CCC[C@H]1C(=O)N[C@@H](Cc1ccc(O)cc1)C(=O)O)[C@@H](C)O) [Example 87]	5.76	0.48	1.91	–	–	–	–
N-dodecanoyl-Gly-Ala-Ala-Pro-Tyr-OH [Example 36]	5.33	0.16	1.47	–	–	–	–
N-dodecanoyl-Ala-Ala-Gly-Tyr-OH (Lauroyl-AAGY-OH; SMILES CCCCCCCCCCCC(=O)N[C@@H](C)C(=O)N[C@@H](C)C(=O)NCC(=O)N[C@@H](Cc1ccc(O)cc1)C(=O)O) [Example 63]	5.46	1.89	1.90	–	–	–	–
